Test results published in patent US20200331850A1, “NOVEL SULFONAMIDE CARBOXAMIDE COMPOUNDS” (Inflazome Limited, priority 2017, published 2020).
Counter-ions that a name gives are not always drawn.

Assays:
[1] = target: T1, NLRP3 (Homo sapiens, UniProt Q96P20); assay: THP-1 cells pyroptosis assay (LPS + nigericin, resazurin readout); type: cell-based; parameters: Seed THP-1 cells (25,000 cells/well) containing 1.0 μg/ml LPS in 40 μl of RPMI medium; host or cells: THP-1 cells, LPS-primed and nigericin-stimulated; conditions: NLRP3 inhibitory activity in THP-1 cells, 1.0 μg/ml LPS, 5 μM nigericin
T1 sequence (Q96P20 whole entry): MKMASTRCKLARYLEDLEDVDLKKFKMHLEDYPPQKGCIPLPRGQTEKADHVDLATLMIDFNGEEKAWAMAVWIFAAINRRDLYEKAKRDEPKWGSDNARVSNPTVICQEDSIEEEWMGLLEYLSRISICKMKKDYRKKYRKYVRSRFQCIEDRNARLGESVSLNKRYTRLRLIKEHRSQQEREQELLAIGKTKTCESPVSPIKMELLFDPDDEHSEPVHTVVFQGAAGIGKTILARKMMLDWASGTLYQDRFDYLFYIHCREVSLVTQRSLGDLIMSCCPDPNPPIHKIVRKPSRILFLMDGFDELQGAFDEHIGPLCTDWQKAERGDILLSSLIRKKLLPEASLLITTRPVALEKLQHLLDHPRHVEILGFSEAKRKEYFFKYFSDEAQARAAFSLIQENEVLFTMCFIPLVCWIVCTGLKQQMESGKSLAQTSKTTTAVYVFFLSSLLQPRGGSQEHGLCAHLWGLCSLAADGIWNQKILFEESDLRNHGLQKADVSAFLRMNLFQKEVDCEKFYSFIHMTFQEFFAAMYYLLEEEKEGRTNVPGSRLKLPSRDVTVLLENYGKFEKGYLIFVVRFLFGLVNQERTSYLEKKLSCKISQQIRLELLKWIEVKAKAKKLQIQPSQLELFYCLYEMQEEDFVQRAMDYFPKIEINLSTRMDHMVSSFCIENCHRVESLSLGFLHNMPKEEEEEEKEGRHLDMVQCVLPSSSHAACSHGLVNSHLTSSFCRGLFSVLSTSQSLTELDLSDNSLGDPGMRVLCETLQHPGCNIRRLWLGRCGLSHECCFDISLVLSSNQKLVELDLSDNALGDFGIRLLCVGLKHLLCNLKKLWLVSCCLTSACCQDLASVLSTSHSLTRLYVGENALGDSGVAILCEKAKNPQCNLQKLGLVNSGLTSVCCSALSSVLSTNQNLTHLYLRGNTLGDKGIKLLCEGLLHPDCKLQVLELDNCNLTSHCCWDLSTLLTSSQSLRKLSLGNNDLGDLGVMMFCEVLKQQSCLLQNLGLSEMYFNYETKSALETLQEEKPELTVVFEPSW
Text: It is well established that the activation of NLRP3 leads to cell pyroptosis and this feature plays an important part in the manifestation of clinical disease (Yan-gang Liu et al., Cell Death & Disease, 2017, 8(2), e2579; Alexander Wree et al., Hepatology, 2014, 59(3), 898-910; Alex Baldwin et al., Journal of Medicinal Chemistry, 2016, 59(5), 1691-1710; Ema Ozaki et al., Journal of Inflammation Research, 2015, 8, 15-27; Zhen Xie & Gang Zhao, Neuroimmunology Neuroinflammation, 2014, 1(2), 60-65; Mattia Cocco et al., Journal of Medicinal Chemistry, 2014, 57(24), 10366-10382; T. Satoh et al., Cell Death & Disease, 2013, 4, e644). Therefore, it is anticipated that inhibitors of NLRP3 will block pyroptosis, as well as the release of pro-inflammatory cytokines (e.g. IL-1β) from the cell. THP-1 cells (ATCC # TIB-202) were grown in RPMI containing L-glutamine (Gibco #11835) supplemented with 1 mM sodium pyruvate (Sigma # S8636) and penicillin (100 units/ml)/streptomycin (0.1 mg/ml) (Sigma # P4333) in 10% Fetal Bovine Serum (FBS) (Sigma # F0804). The cells were routinely passaged and grown to confluency (˜10^6 cells/ml). On the day of the experiment, THP-1 cells were harvested and resuspended into RPMI medium (without FBS). The cells were then counted and viability (>90%) checked by Trypan blue (Sigma # T8154). Appropriate dilutions were made to give a concentration of 625,000 cells/ml. To this diluted cell solution was added LPS (Sigma # L4524) to give a […] Final Assay Concentration (FAC). 40 μl of the final preparation was aliquoted into each well of a 96-well plate. The plate thus prepared was used for compound screening. The following method step-by-step assay was followed for compound screening. • 1. Seed THP-1 cells (25,000 cells/well) containing 1.0 μg/ml LPS in 40 μl of RPMI medium (without FBS) in 96-well, black walled, clear bottom cell culture plates coated with poly-D-lysine (VWR #734-0317) • 2. Add 5 μl compound (8 points half-log dilution, with 10 μM top dose) or vehicle (DMSO 0.1% FAC) to the appropriate wells • 3. […] Add 5 μl nigericin (Sigma # N7143) (FAC 5 μM) to all wells • 5. […] At the end of the incubation period, spin plates at 300×g for 3 mins and remove supernatant • 7. Then add 50 μl of resazurin (Sigma # R7017) (FAC 100 μM resazurin in RPMI medium without FBS) and incubate plates for a further 1-2 hrs at 37° C. and 5% CO2 • 8. Plates were read in an Envision reader at Ex 560 nm and Em 590 nm • 9. IC50 data is fitted to a non-linear regression equation (log inhibitor vs response-variable slope 4-parameters) The results of the pyroptosis assay performed are summarised in Table 1 below as THP IC50.

[2] = target: T1, NLRP3; assay: Human whole blood IL1β release assay (LPS + nigericin, AlphaLisa IL-1β); type: cell-based; parameters: Plate out 80 μl of whole blood containing 1βg/ml of LPS in 96-well, clear bottom cell culture plate; from tissue; host or cells: human whole blood from healthy donors, LPS-primed and nigericin-stimulated; conditions: NLRP3 inhibitory activity in human whole blood, IL-1β release, 10 μM nigericin, read-out: HWB IC50
Procedure: For systemic delivery, the ability to inhibit NLRP3 when the compounds are present within the bloodstream is of great importance. For this reason, the NLRP3 inhibitory activity of a number of compounds in human whole blood was investigated in accordance with the following protocol.
Human whole blood in Li-heparin tubes was obtained from healthy donors from a volunteer donor panel. • 1. Plate out 80 μl of whole blood containing 1βg/ml of LPS in 96-well, clear bottom cell culture plate (Corning #3585) • 2. Add 10 μl compound (8 points half-log dilution with 10 μM top dose) or vehicle (DMSO 0.1% FAC) to the appropriate wells • 3. Incubate for 3 hrs at 37° C., 5% CO2 • 4. Add 10 μl Nigericin (Sigma # N7143) (10 μM FAC) to all wells • 5. Incubate for 1 hr at 37° C., 5% CO2 • 6. At the end of the incubation period, spin plates at 300×g for 5 mins to pellet cells and remove 20 μl of supernatant and add to 96-well v-bottom plates for IL-1β analysis (note: these plates containing the supernatants can be stored at −80° C. to be analysed at a later date) • 7. IL-1β was measured according to the manufacturer protocol (Perkin Elmer-AlphaLisa IL-1 Kit AL220F-5000) • 8. IC50 data is fitted to a non-linear regression equation (log inhibitor vs response-variable slope 4-parameters)

| SMILES | IC50 [1] [nM] | IC50 [2] [nM] |
| --- | --- | --- |
| COCCCS(=O)(=O)NC(=O)Nc1c(-c2ccnc(C#N)c2)cc(F)cc1C(C)C [Example 49, N-((2-(2-Cyanopyridin-4-yl)-4-fluoro-6-isopropylphenyl)carbamoyl)-3-methoxypropane-1-sulfonamide] | 2000 to 10000 |  |
| O=C(Nc1c(-c2ccncc2)cc(F)c2c1CCC2)NS(=O)(=O)Cc1cccnc1 [Example 56, N-((7-Fluoro-5-(pyridin-4-yl)-2,3-dihydro-1H-inden-4-yl)carbamoyl)-1-(pyridin-3-yl)methanesulfonamide] | 2000 to 10000 |  |
| CC(C)c1cc(F)cc(-c2ccnc(C#N)c2)c1NC(=O)NS(=O)(=O)CC1CCN(C)C1 (stereo not shown) [Example 57, N-((2-(2-Cyanopyridin-4-yl)-4-fluoro-6-isopropylphenyl)carbamoyl)-1-(1-methylpyrrolidin-3-yl)methanesulfonamide] | 2000 to 10000 |  |
| CCN(CC)CCS(=O)(=O)NC(=O)Nc1c2c(cc3c1CCC3)CCC2 [Example 18, 2-(Diethylamino)-N-((1,2,3,5,6,7-hexahydro-s-indacen-4-yl)carbamoyl)ethane-1-sulfonamide, potassium salt] | 2000 to 10000 |  |
| O=C(Nc1c2c(cc3c1CCC3)CCC2)NS(=O)(=O)CCCN1CCCCC1 [Example 16, N-((1,2,3,5,6,7-Hexahydro-s-indacen-4-yl)carbamoyl)-3-(piperidin-1-yl)propane-1-sulfonamide, Potassium Salt] | 1600 to 2000 |  |
| O=C(Nc1c2c(cc3c1CCC3)CCC2)NS(=O)(=O)CC1CCN(C2COC2)C1 (stereo not shown) [Example 64, N-((1,2,3,5,6,7-Hexahydro-s-indacen-4-yl)carbamoyl)-1-(1-(oxetan-3-yl)pyrrolidin-3-yl)methanesulfonamide, Potassium Salt] | 2000 to 10000 |  |
| CCN1CC2(CC(S(=O)(=O)NC(=O)Nc3c4c(cc5c3CCC5)CCC4)C2)C1 [Example 38, 2-Ethyl-N-((1,2,3,5,6,7-hexahydro-s-indacen-4-yl)carbamoyl)-2-azaspiro[3.3]heptane-6-sulfonamide, potassium salt] | 2000 to 10000 |  |
| C[N+](C)(C)CCCS(=O)(=O)NC(=O)Nc1c2c(cc3c1CCC3)CCC2 [Example 66, 3-(N-((1,2,3,5,6,7-Hexahydro-s-indacen-4-yl)carbamoyl)sulfamoyl)-N,N,N-trimethylpropan-1-aminium, Potassium Salt] | 2000 to 10000 |  |
| CN1CC2(CC(S(=O)(=O)NC(=O)Nc3c4c(cc5c3CCC5)CCC4)C2)C1 [Example 40, N-((1,2,3,5,6,7-Hexahydro-s-indacen-4-yl)carbamoyl)-2-methyl-2-azaspiro[3.3]heptane-6-sulfonamide, potassium salt] | 2000 to 10000 |  |
| COc1cc(-c2ccc3c(c2NC(=O)NS(=O)(=O)Cc2cccnc2)CCC3)ccn1 [Example 55, N-((5-(2-Methoxypyridin-4-yl)-2,3-dihydro-1H-inden-4-yl)carbamoyl)-1-(pyridin-3-yl)methanesulfonamide] | 2000 to 10000 |  |
| O=C(Nc1c2c(cc3c1CCC3)CCC2)NS(=O)(=O)Cc1cccnc1 [Example 20, N-((1,2,3,5,6,7-Hexahydro-s-indacen-4-yl)carbamoyl)-1-(pyridin-3-yl)methanesulfonamide, potassium salt] |  | ≤ 5000 |
| COc1cc(-c2ccc3c(c2NC(=O)NS(=O)(=O)CC2CCN(C)C2)CCC3)ccn1 (stereo not shown) [Example 59, N-((5-(2-Methoxypyridin-4-yl)-2,3-dihydro-1H-inden-4-yl)carbamoyl)-1-(1-methylpyrrolidin-3-yl)methanesulfonamide] |  | ≤ 1000 |

Other lines, results leading:

| IC50 [1] [nM] | IC50 [2] [nM] | SMILES |
| --- | --- | --- |
| 1600 to 2000 |  | O=C(Nc1c2c(cc3c1CCC3)CCC2)NS(=O)(=O)C1(CN2CCC2)CC1 [Example 87, 1-(Azetidin-1-ylmethyl)-N-((1,2,3,5,6,7-hexahydro-s-indacen-4-yl)carbamoyl)cyclopropane-1-sulfonamide] |
| 2000 to 10000 |  | CC1(C)C2CC[C@@]1(CS(=O)(=O)NC(=O)Nc1c3c(cc4c1CCC4)CCC3)C(N)C2 (stereo partly drawn) [Example 85, 1-((1S)-2-Amino-7,7-dimethylbicyclo[2.2.1]heptan-1-yl)-N-((1,2,3,5,6,7-hexahydro-s-indacen-4-yl)carbamoyl)methanesulfonamide] |
| 2000 to 10000 |  | CC(C)c1cc(F)cc(-c2ccnc(C#N)c2)c1NC(=O)NS(=O)(=O)Cc1cccnc1 [Example 112, N-((2-(2-Cyanopyridin-4-yl)-4-fluoro-6-isopropylphenyl)carbamoyl)-1-(pyridin-3-yl)methanesulfonamide] |
|  | ≤ 1000 | CC(C)C1CCN1CCS(=O)(=O)NC(=O)Nc1c2c(cc3c1CCC3)CCC2 (stereo not shown) [Example 104, N-((1,2,3,5,6,7-Hexahydro-s-indacen-4-yl)carbamoyl)-2-(2-isopropylazetidin-1-yl)ethane-1-sulfonamide] |
|  | ≤ 7500 | CN(C)C(=O)CCS(=O)(=O)NC(=O)Nc1c2c(cc3c1CCC3)CCC2 [Example 97, 3-(N-((1,2,3,5,6,7-Hexahydro-s-indacen-4-yl)carbamoyl)sulfamoyl)-N,N-dimethylpropanamide] |
|  | ≤ 1000 | CN1CCCC1CS(=O)(=O)NC(=O)Nc1c2c(cc3c1CCC3)CCC2 (stereo not shown) [Example 105, N-((1,2,3,5,6,7-Hexahydro-s-indacen-4-yl)carbamoyl)-1-(1-methylpyrrolidin-2-yl)methanesulfonamide] |
|  | ≤ 1000 | CC(C)N1CCCCC1CS(=O)(=O)NC(=O)Nc1c2c(cc3c1CCC3)CCC2 (stereo not shown) [Example 109, N-((1,2,3,5,6,7-Hexahydro-s-indacen-4-yl)carbamoyl)-1-(1-isopropylpiperidin-2-yl)methanesulfonamide] |
|  | ≤ 5000 | CON(C)CCCS(=O)(=O)NC(=O)Nc1c2c(cc3c1CCC3)CCC2 [Example 70, N-((1,2,3,5,6,7-Hexahydro-s-indacen-4-yl)carbamoyl)-3-(methoxy(methyl)amino)propane-1-sulfonamide, Potassium Salt] |
|  | ≤ 5000 | O=C(Nc1c2c(cc3c1CCC3)CCC2)NS(=O)(=O)CCN1CC(F)C1 [Example 90, 2-(3-Fluoroazetidin-1-yl)-N-((1,2,3,5,6,7-hexahydro-s-indacen-4-yl)carbamoyl)ethane-1-sulfonamide] |
|  | ≤ 10000 | CC1(C)C2CC[C@@]1(CS(=O)(=O)NC(=O)Nc1c3c(cc4c1CCC4)CCC3)/C(=N/O)C2 [Example 71, N-((1,2,3,5,6,7-Hexahydro-s-indacen-4-yl)carbamoyl)-1-((1S,E)-2-(hydroxyimino)-7,7-dimethylbicyclo[2.2.1]heptan-1-yl)methane sulfonamide, Potassium Salt] |
